Results on three compounds are retold here after patent publication US5312815A, “Fungicidal (+)-2-(2,4-difluorophenyl)-3-methyl-1-(1H-1,2,4-triazol-1-yl)3-(6-(1H-1, 2,4-triazol-1-yl)pyridazin-3-ylthio) butan-2-ol” (Roussel Morishita Co., Ltd., priority 1992, dated 1994).

The structures appear in SMILES notation. In brackets after ≈: the same amount, converted by molar mass.

Data set [1] relates to Aspergillus fumigatus. In words: In vitro antifungal activity, MIC on mycelium formation. Format: cell-based. The settings on record: 37° C., 24 hours, Eagle's MEM with 10% fetal bovine serum. As to the method: (§1) Candida albicans (10^2 cells) or Aspergillus fumigatus (10^3 cells) was inoculated to 200 μl of an Eagle's minimum essential medium containing 10% fetal bovine serum and a test compound shown in Table 2 below at a dilution increasing by a factor of 2. The system was incubated at 37° C. for 24 hours in a 5 v/v% CO2 stream to obtain the minimum inhibitory concentration (MIC) on mycelium formation.

Data set [2] has as its system Candida albicans. Described as above. Format: cell-based. To be noted: 37° C., 24 hours, Eagle's MEM with 10% fetal bovine serum. As for the experimental part:
as §1

The test system of data set [3] is Aspergillus fumigatus Kawasaki strain. In words: In vivo antifungal activity, Aspergillus fumigatus infected mice, oral. Further details: species or system mouse. To be noted: 25 mg/kg p.o. twice a day, 4 days, in 0.5% MC (ITZ: in PEG 400); for Mean Survival Days: 10 days observation; for Survival Number on Day 1 / Survival Number on Day 2 / Survival Number on Day 3 / Survival Number on Day 4: of 9 mice. As for the experimental part:
Asperoillus fumigatus Kawasaki strain having been cultured at 27° C. for 1 week was suspended in physiological saline, and the suspension (3×10^6 cells) was injected into the tail vein of a 4-week-old day male mouse (9 mice per group). Two days before the infection and on the day of the infection, 100 mg/kg of cyclophosphamide was intraperitoneally administered to each animal.
For comparison, compound (A) shown below which is described in EP 0421210A2, fluconazole (FCZ) and itraconazole (ITZ), were used as a comparative substance. Itraconazole was administered in a polyethylene glycol (400) solution. [drawing 4]

Data set [4] can be described thus: Acute toxicity in mice. Format: in vivo, ICR male mouse. To be noted: 1000 mg/kg oral, in 0.5% MC, 5 mice per group, 7 days.

Turning to `CC(C)(Sc1ccc(-n2cncn2)nn1)C(O)(Cn1cncn1)c1ccc(F)cc1F` (single isomer, unassigned; (-)) [Reference Example 12, (-)-2-(2,4-difluorophenyl)-3-methyl-1-(1H-1,2,4-triazol-1-yl)-3-(6-(1H-1,2,4-triazol-1-yl)-pyridazin-3-ylthio)butan-2-ol, reference compound], the “MIC on Mycelium Formation, A. fumigatus” value in data set [1] amounted to 100 µg/mL (≈ 225 µM). In data set [2], the “MIC on Mycelium Formation, C. albicans” value stood at 1.56 µg/mL (≈ 3.51 µM).
Regarding `CCC(C)n1ncn(-c2ccc(N3CCN(c4ccc(OCC5COC(Cn6cncn6)(c6ccc(Cl)cc6Cl)O5)cc4)CC3)cc2)c1=O` (stereo not shown) [ITZ, itraconazole, reference compound], in data set [3], the “Mean Survival Days” value was 2.1 days, the “Survival Number on Day 1” value worked out at 9, the “Survival Number on Day 2” value is listed as 9 and the “Survival Number on Day 3” value stood at 9. In addition, the “Survival Number on Day 4” value in data set [3] turned out to be 1.
As for `Cc1nnc(SC(C)C(O)(Cn2cncn2)c2ccc(F)cc2F)s1` (stereo not shown) [compound (A), reference compound], in data set [3], the “Mean Survival Days” value came to 2.3 days, the “Survival Number on Day 1” value is recorded as 9, the “Survival Number on Day 2” value was 9 and the “Survival Number on Day 3” value turned out to be 3. For the same compound, the “Survival Number on Day 4” value in data set [3] was determined as 0. In data set [4], the “life or death, acute toxicity” value was “all of the mice died”.
